# Key:
# Fusarium oxysporum [1] = test: MIC broth microdilution (CLSI); assay type: cell-based; conditions: Fusarium oxysporum 07-200-3012
# Method: (§1) Antifungal susceptibility was determined by broth microdilution according to the CLSI guidelines described in M27-Ed4 ([16]).
# Aspergillus felis = test: MIC broth microdilution (CLSI); assay type: cell-based; conditions: Aspergillus felis IHE87256683D6
# Method: as §1
# Fusarium solani = test: checkerboard drug interaction (FICI, MICc); assay type: cell-based;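 note: simplified diagonal checkerboard screen pairing antifungals with FPPS inhibitors, FICI derived under the Loewe additivity model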
# Method: (§2) Drug interactions between antifungals and FPPS inhibitors were investigated using a simplified checkerboard diagonal screening method ([45]). […] FICIs were determined according to the Loewe additivity model ([17]).
# Microsporum canis [2] = test: MIC broth microdilution (CLSI); conditions: Microsporum canis R-232
# Method: as §1
# Candida tropicalis [3] = test: MIC broth microdilution (CLSI); assay type: cell-based; conditions: Candida tropicalis M230640
# Method: as §1
# Candida parapsilosis = test: checkerboard drug interaction (FICI, MICc); assay type: cell-based;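 note: simplified diagonal checkerboard screen pairing antifungals with FPPS inhibitors, with FICI computed under the Loewe additivity model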
# Method: as §2
# [4] = tested on: 38 species of clinically relevant fungi; test: MIC summary across 38 species of clinically relevant fungi; assay type: cell-based; conditions: 38 fungal species; read-out: GM MIC
# Text: […]; Table S3). […]. […] […]. […] […].
# Nannizzia nana = test: checkerboard drug interaction (FICI, MICc); assay type: cell-based;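 note: simplified diagonal checkerboard screen pairing antifungals with FPPS inhibitors, FICI calculated under the Loewe additivity model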
# Method: as §2
# Nannizzia gypsea [5] = test: checkerboard drug interaction (FICI, MICc);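 note: simplified diagonal checkerboard screen pairing antifungals with FPPS inhibitors, FICI derived using the Loewe additivity model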
# Method: as §2
# Nannizzia gypsea [6] = test: MIC broth microdilution (CLSI); assay type: cell-based; conditions: Nannizzia gypsea R-131
# Method: as §1
# Mucor circinelloides = test: checkerboard drug interaction (FICI, MICc); assay type: cell-based;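 note: simplified diagonal checkerboard screen pairing antifungals with FPPS inhibitors, FICI calculated under the Loewe additivity model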
# Method: as §2
# Candida tropicalis [7] = test: checkerboard drug interaction (FICI, MICc); assay type: cell-based;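 note: simplified diagonal checkerboard screen of antifungal plus FPPS inhibitor combinations, with FICI computed by the Loewe additivity model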
# Method: as §2
# Scedosporium apiospermum = test: MIC broth microdilution (CLSI); assay type: cell-based; conditions: Scedosporium apiospermum 04-16-022-2268
# Method: as §1
# Microsporum canis [8] = test: checkerboard drug interaction (FICI, MICc); assay type: cell-based;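 note: simplified diagonal checkerboard screen pairing antifungals with FPPS inhibitors, FICI calculated under the Loewe additivity model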
# Method: as §2
# Epidermophyton floccosum = test: MIC broth microdilution (CLSI); assay type: cell-based; conditions: Epidermophyon floccosum R-113
# Method: as §1
# Cryptococcus gattii [9] = test: MIC broth microdilution (CLSI); assay type: cell-based; conditions: Cryptococcus gattii PNG27
# Method: as §1
# Cryptococcus gattii [10] = test: checkerboard drug interaction (FICI, MICc); assay type: cell-based;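 note: simplified diagonal checkerboard screen pairing antifungals with FPPS inhibitors, FICI computed under the Loewe additivity model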
# Method: as §2
# Aspergillus terreus = test: MIC broth microdilution (CLSI); assay type: cell-based; conditions: Aspergillus terreus 75-16-089-2500
# Method: as §1
# Cryptococcus tetragattii = test: MIC broth microdilution (CLSI); assay type: cell-based; conditions: Cryptococcus tetragattii WM779
# Method: as §1
# Trichophyton tonsurans = test: checkerboard drug interaction (FICI, MICc); assay type: cell-based;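 note: simplified diagonal checkerboard screen combining antifungals with FPPS inhibitors, with FICI calculated under the Loewe additivity model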
# Method: as §2
# Fusarium oxysporum [11] = test: checkerboard drug interaction (FICI, MICc); assay type: cell-based;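 note: simplified diagonal checkerboard screen pairing antifungals with FPPS inhibitors, FICI calculated under the Loewe additivity model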
# Method: as §2
# Trichophyton soudanense = test: checkerboard drug interaction (FICI, MICc); assay type: cell-based;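 note: simplified diagonal checkerboard screen pairing antifungals with FPPS inhibitors, FICI computed under the Loewe additivity model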
# Method: as §2
# Pichia kudriavzevii = test: checkerboard drug interaction (FICI, MICc); assay type: cell-based;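 note: antifungal plus FPPS inhibitor interactions tested in a simplified diagonal checkerboard screen, with FICI calculated under the Loewe additivity model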
# Method: as §2
# Candida dubliniensis = test: MIC broth microdilution (CLSI); assay type: cell-based; conditions: Candida dubliniensis M230642
# Method: as §1
structure (smiles),measurement,setting,value
"O=P(O)(O)C(O)(Cn1ccnc1)P(=O)(O)O [ZOL, zoledronate]",MIC / MEC,Fusarium oxysporum [1],>256 µg/mL
same,MIC / MEC,Aspergillus felis,>256 µg/mL
same,FICI,Fusarium solani; 5FC:ZOL,3
same,FICI,Fusarium solani; AMB:ZOL,0.75
same,FICI,Fusarium solani; CAS:ZOL,≥4
same,FICI,Fusarium solani; FLC:ZOL,0.75
same,FICI,Fusarium solani; ITR:ZOL,0.38
same,FICI,Fusarium solani; KET:ZOL,0.75
same,FICI,Fusarium solani; VOR:ZOL,1.03
same,bisphosphonate MICc,Fusarium solani; ZOL with 5FC,256
same,bisphosphonate MICc,Fusarium solani; ZOL with AMB,64
same,bisphosphonate MICc,Fusarium solani; ZOL with CAS,256
same,bisphosphonate MICc,Fusarium solani; ZOL with FLC,128
same,bisphosphonate MICc,Fusarium solani; ZOL with ITR,32
same,bisphosphonate MICc,Fusarium solani; ZOL with KET,128
same,bisphosphonate MICc,Fusarium solani; ZOL with VOR,8
same,MIC / MEC,Microsporum canis [2],64 µg/mL
same,MIC / MEC,Candida tropicalis [3],128 µg/mL
same,FICI,Candida parapsilosis; 5FC:ZOL,1
same,FICI,Candida parapsilosis; AMB:ZOL,1.5
same,FICI,Candida parapsilosis; CAS:ZOL,0.75
same,FICI,Candida parapsilosis; FLC:ZOL,0.38
same,FICI,Candida parapsilosis; ITR:ZOL,0.5
same,FICI,Candida parapsilosis; KET:ZOL,0.53
same,FICI,Candida parapsilosis; VOR:ZOL,1.21
same,bisphosphonate MICc,Candida parapsilosis; ZOL with 5FC,64
same,bisphosphonate MICc,Candida parapsilosis; ZOL with AMB,64
same,bisphosphonate MICc,Candida parapsilosis; ZOL with CAS,32
same,bisphosphonate MICc,Candida parapsilosis; ZOL with FLC,32
same,bisphosphonate MICc,Candida parapsilosis; ZOL with ITR,32
same,bisphosphonate MICc,Candida parapsilosis; ZOL with KET,4
same,bisphosphonate MICc,Candida parapsilosis; ZOL with VOR,32
same,MIC,[4],148 ± 176 µg/mL
same,FICI,Nannizzia nana; 5FC:ZOL,≥4
same,FICI,Nannizzia nana; AMB:ZOL,1
same,FICI,Nannizzia nana; CAS:ZOL,0.75
same,FICI,Nannizzia nana; FLC:ZOL,0.5
same,FICI,Nannizzia nana; ITR:ZOL,0.65
same,FICI,Nannizzia nana; KET:ZOL,0.51
same,FICI,Nannizzia nana; VOR:ZOL,1.1
same,bisphosphonate MICc,Nannizzia nana; ZOL with 5FC,256
same,bisphosphonate MICc,Nannizzia nana; ZOL with AMB,64
same,bisphosphonate MICc,Nannizzia nana; ZOL with CAS,64
same,bisphosphonate MICc,Nannizzia nana; ZOL with FLC,32
same,bisphosphonate MICc,Nannizzia nana; ZOL with ITR,16
same,bisphosphonate MICc,Nannizzia nana; ZOL with KET,32
same,bisphosphonate MICc,Nannizzia nana; ZOL with VOR,8
same,FICI,Nannizzia gypsea [5]; 5FC:ZOL,3
same,FICI,Nannizzia gypsea [5]; AMB:ZOL,0.75
same,FICI,Nannizzia gypsea [5]; CAS:ZOL,0.75
same,FICI,Nannizzia gypsea [5]; FLC:ZOL,0.31
same,FICI,Nannizzia gypsea [5]; ITR:ZOL,0.38
same,FICI,Nannizzia gypsea [5]; KET:ZOL,0.19
same,FICI,Nannizzia gypsea [5]; VOR:ZOL,0.28
same,bisphosphonate MICc,Nannizzia gypsea [5]; ZOL with 5FC,256
same,bisphosphonate MICc,Nannizzia gypsea [5]; ZOL with AMB,64
same,bisphosphonate MICc,Nannizzia gypsea [5]; ZOL with CAS,64
same,bisphosphonate MICc,Nannizzia gypsea [5]; ZOL with FLC,16
same,bisphosphonate MICc,Nannizzia gypsea [5]; ZOL with ITR,32
same,bisphosphonate MICc,Nannizzia gypsea [5]; ZOL with KET,32
same,bisphosphonate MICc,Nannizzia gypsea [5]; ZOL with VOR,8
same,MIC / MEC,Nannizzia gypsea [6],256 µg/mL
same,FICI,Mucor circinelloides; 5FC:ZOL,≥4
same,FICI,Mucor circinelloides; AMB:ZOL,3
same,FICI,Mucor circinelloides; CAS:ZOL,1
same,FICI,Mucor circinelloides; FLC:ZOL,0.38
same,FICI,Mucor circinelloides; ITR:ZOL,0.25
same,FICI,Mucor circinelloides; KET:ZOL,0.75
same,FICI,Mucor circinelloides; VOR:ZOL,0.63
same,bisphosphonate MICc,Mucor circinelloides; ZOL with 5FC,64
same,bisphosphonate MICc,Mucor circinelloides; ZOL with AMB,128
same,bisphosphonate MICc,Mucor circinelloides; ZOL with CAS,32
same,bisphosphonate MICc,Mucor circinelloides; ZOL with FLC,16
same,bisphosphonate MICc,Mucor circinelloides; ZOL with ITR,8
same,bisphosphonate MICc,Mucor circinelloides; ZOL with KET,16
same,bisphosphonate MICc,Mucor circinelloides; ZOL with VOR,8
same,FICI,Candida tropicalis [7]; 5FC:ZOL,0.75
same,FICI,Candida tropicalis [7]; AMB:ZOL,2
same,FICI,Candida tropicalis [7]; CAS:ZOL,0.4
same,FICI,Candida tropicalis [7]; FLC:ZOL,0.31
same,FICI,Candida tropicalis [7]; ITR:ZOL,0.31
same,FICI,Candida tropicalis [7]; KET:ZOL,0.31
same,FICI,Candida tropicalis [7]; VOR:ZOL,0.49
same,bisphosphonate MICc,Candida tropicalis [7]; ZOL with 5FC,64
same,bisphosphonate MICc,Candida tropicalis [7]; ZOL with AMB,128
same,bisphosphonate MICc,Candida tropicalis [7]; ZOL with CAS,8
same,bisphosphonate MICc,Candida tropicalis [7]; ZOL with FLC,32
same,bisphosphonate MICc,Candida tropicalis [7]; ZOL with ITR,16
same,bisphosphonate MICc,Candida tropicalis [7]; ZOL with KET,32
same,bisphosphonate MICc,Candida tropicalis [7]; ZOL with VOR,1
same,MIC / MEC,Scedosporium apiospermum,256 µg/mL
same,FICI,Microsporum canis [8]; 5FC:ZOL,≥4
same,FICI,Microsporum canis [8]; AMB:ZOL,0.75
same,FICI,Microsporum canis [8]; CAS:ZOL,0.56
same,FICI,Microsporum canis [8]; FLC:ZOL,0.38
same,FICI,Microsporum canis [8]; ITR:ZOL,0.75
same,FICI,Microsporum canis [8]; KET:ZOL,0.31
same,FICI,Microsporum canis [8]; VOR:ZOL,0.63
same,bisphosphonate MICc,Microsporum canis [8]; ZOL with 5FC,64
same,bisphosphonate MICc,Microsporum canis [8]; ZOL with AMB,16
same,bisphosphonate MICc,Microsporum canis [8]; ZOL with CAS,4
same,bisphosphonate MICc,Microsporum canis [8]; ZOL with FLC,8
same,bisphosphonate MICc,Microsporum canis [8]; ZOL with ITR,16
same,bisphosphonate MICc,Microsporum canis [8]; ZOL with KET,4
same,bisphosphonate MICc,Microsporum canis [8]; ZOL with VOR,8
same,MIC / MEC,Epidermophyton floccosum,64 µg/mL
same,MIC / MEC,Cryptococcus gattii [9],128 µg/mL
same,FICI,Cryptococcus gattii [10]; 5FC:ZOL,1.25
same,FICI,Cryptococcus gattii [10]; AMB:ZOL,1.5
same,FICI,Cryptococcus gattii [10]; CAS:ZOL,≥4
same,FICI,Cryptococcus gattii [10]; FLC:ZOL,0.38
same,FICI,Cryptococcus gattii [10]; ITR:ZOL,0.63
same,FICI,Cryptococcus gattii [10]; KET:ZOL,1.03
same,FICI,Cryptococcus gattii [10]; VOR:ZOL,1.25
same,bisphosphonate MICc,Cryptococcus gattii [10]; ZOL with 5FC,128
same,bisphosphonate MICc,Cryptococcus gattii [10]; ZOL with AMB,64
same,bisphosphonate MICc,Cryptococcus gattii [10]; ZOL with CAS,256
same,bisphosphonate MICc,Cryptococcus gattii [10]; ZOL with FLC,32
same,bisphosphonate MICc,Cryptococcus gattii [10]; ZOL with ITR,16
same,bisphosphonate MICc,Cryptococcus gattii [10]; ZOL with KET,4
same,bisphosphonate MICc,Cryptococcus gattii [10]; ZOL with VOR,32
same,MIC / MEC,Aspergillus terreus,128 µg/mL
same,MIC / MEC,Cryptococcus tetragattii,64 µg/mL
same,FICI,Trichophyton tonsurans; 5FC:ZOL,2
same,FICI,Trichophyton tonsurans; AMB:ZOL,3.92
same,FICI,Trichophyton tonsurans; CAS:ZOL,1
same,FICI,Trichophyton tonsurans; FLC:ZOL,0.31
same,FICI,Trichophyton tonsurans; ITR:ZOL,0.38
same,FICI,Trichophyton tonsurans; KET:ZOL,0.25
same,FICI,Trichophyton tonsurans; VOR:ZOL,0.61
same,bisphosphonate MICc,Trichophyton tonsurans; ZOL with 5FC,128
same,bisphosphonate MICc,Trichophyton tonsurans; ZOL with AMB,256
same,bisphosphonate MICc,Trichophyton tonsurans; ZOL with CAS,64
same,bisphosphonate MICc,Trichophyton tonsurans; ZOL with FLC,8
same,bisphosphonate MICc,Trichophyton tonsurans; ZOL with ITR,16
same,bisphosphonate MICc,Trichophyton tonsurans; ZOL with KET,16
same,bisphosphonate MICc,Trichophyton tonsurans; ZOL with VOR,16
same,FICI,Fusarium oxysporum [11]; 5FC:ZOL,≥4
same,FICI,Fusarium oxysporum [11]; AMB:ZOL,0.63
same,FICI,Fusarium oxysporum [11]; CAS:ZOL,2.5
same,FICI,Fusarium oxysporum [11]; FLC:ZOL,0.75
same,FICI,Fusarium oxysporum [11]; ITR:ZOL,0.5
same,FICI,Fusarium oxysporum [11]; KET:ZOL,0.75
same,FICI,Fusarium oxysporum [11]; VOR:ZOL,1.02
same,bisphosphonate MICc,Fusarium oxysporum [11]; ZOL with 5FC,256
same,bisphosphonate MICc,Fusarium oxysporum [11]; ZOL with AMB,64
same,bisphosphonate MICc,Fusarium oxysporum [11]; ZOL with CAS,256
same,bisphosphonate MICc,Fusarium oxysporum [11]; ZOL with FLC,256
same,bisphosphonate MICc,Fusarium oxysporum [11]; ZOL with ITR,128
same,bisphosphonate MICc,Fusarium oxysporum [11]; ZOL with KET,256
same,bisphosphonate MICc,Fusarium oxysporum [11]; ZOL with VOR,8
same,FICI,Trichophyton soudanense; 5FC:ZOL,3
same,FICI,Trichophyton soudanense; AMB:ZOL,3
same,FICI,Trichophyton soudanense; CAS:ZOL,3
same,FICI,Trichophyton soudanense; FLC:ZOL,0.75
same,FICI,Trichophyton soudanense; ITR:ZOL,0.75
same,FICI,Trichophyton soudanense; KET:ZOL,0.38
same,FICI,Trichophyton soudanense; VOR:ZOL,0.49
same,bisphosphonate MICc,Trichophyton soudanense; ZOL with 5FC,128
same,bisphosphonate MICc,Trichophyton soudanense; ZOL with AMB,128
same,bisphosphonate MICc,Trichophyton soudanense; ZOL with CAS,64
same,bisphosphonate MICc,Trichophyton soudanense; ZOL with FLC,16
same,bisphosphonate MICc,Trichophyton soudanense; ZOL with ITR,16
same,bisphosphonate MICc,Trichophyton soudanense; ZOL with KET,8
same,bisphosphonate MICc,Trichophyton soudanense; ZOL with VOR,16
same,FICI,Pichia kudriavzevii; 5FC:ZOL,1.13
same,FICI,Pichia kudriavzevii; AMB:ZOL,0.63
same,FICI,Pichia kudriavzevii; CAS:ZOL,0.56
same,FICI,Pichia kudriavzevii; FLC:ZOL,0.67
same,FICI,Pichia kudriavzevii; ITR:ZOL,0.5
same,FICI,Pichia kudriavzevii; KET:ZOL,0.38
same,FICI,Pichia kudriavzevii; VOR:ZOL,2.25
same,bisphosphonate MICc,Pichia kudriavzevii; ZOL with 5FC,256
same,bisphosphonate MICc,Pichia kudriavzevii; ZOL with AMB,32
same,bisphosphonate MICc,Pichia kudriavzevii; ZOL with CAS,16
same,bisphosphonate MICc,Pichia kudriavzevii; ZOL with FLC,128
same,bisphosphonate MICc,Pichia kudriavzevii; ZOL with ITR,64
same,bisphosphonate MICc,Pichia kudriavzevii; ZOL with KET,64
same,bisphosphonate MICc,Pichia kudriavzevii; ZOL with VOR,64
same,MIC / MEC,Candida dubliniensis,4 µg/mL

# — PMC12892976, “Alkylation-based optimization of antifungal FPPS inhibitors yields a potent, broad-spectrum lipophilic zoledronate derivative” (mBio, 2025)
